Values joined by “and” are separate entries in the source; they are usually repeats but may differ in a detail not shown here. Identical values can stand only once.
Tested on: Streptococcus mutans
Assay: Tooth experiment: biofilm formation of Streptococcus mutans on pre-treated human incisors (Safranin staining, phase analysis of pictures)
Type: cell-based
Details: for % Area covered with bacteria: single pictures (4 per tooth), 3 days S. mutans; for % Mean area covered: mean of 4 pictures
Description: To investigate the influence of glycerol phosphate, polyglycerol phosphate and LTA-T on the biofilm formation of Streptococcus mutans on human teeth, incisors (1/condition) were preincubated under rotating conditions (50 rpm) at 37° C. for 1 h with: • 1. 5000 μg/ml glycerol phosphate in PBS • 2. 20000 μg/ml glycerol phosphate in PBS • 3. 277 μg/ml polyglycerol phosphate (PGP1) in PBS • 4. 1106 μg/ml polyglycerol phosphate (PGP1) in PBS • 5. 25 μg/ml LTA-T in PBS • 6. PBS as control
These teeth were then washed with ultrapure H2O by repetitive dipping (3 liquid air interfaces) and incubated in a saturated suspension of Streptococcus mutans (in BHI broth, 3% sucrose) under rotating conditions (50 rpm) at 37° C. for 3 days. Each day, bacteria were fed with 1 ml of a solution of 30% sucrose in PBS to enhance biofilm formation. After incubation, the teeth were washed with ultrapure H2O, air dried for 2 h and stained with Safranin (0.5% v/v) solution. The stained teeth were air dried and photographed (see above).
Of each tooth 4 representative pictures were taken. The pictures were analyzed with SigmaPlot Software, Version 11.0 using phase analysis: The color (phase) of the bacterial biofilm was defined and % area of the chosen color on each picture was calculated.
The difference between groups was compared using the unpaired t-test.

Compound	adhesion of bacteria compared to control tooth (pre-treatment 5000 μg/ml)	% Area covered with bacteria (pre-treatment 5000 μg/ml in PBS 1 h)	% Mean area covered (pre-treatment 5000 μg/ml)	adhesion of bacteria compared to control tooth (pre-treatment 20000 μg/ml)	% Area covered with bacteria (pre-treatment 20000 μg/ml in PBS 1 h)	% Mean area covered (pre-treatment 20000 μg/ml)	adhesion of bacteria compared to control tooth (pre-treatment 277 μg/ml)	% Area covered with bacteria (pre-treatment 277 μg/ml in PBS 1 h)	% Mean area covered (pre-treatment 277 μg/ml)	adhesion of bacteria to the tooth surface (pre-treatment 1106 μg/ml)	decrease of biofilm formation compared to control tooth (pre-treatment 1106 μg/ml)	% Mean area covered (pre-treatment 1106 μg/ml)
O=P(O)(O)OC(CO)CO [glycerol phosphate, beta glycerol phosphate]	significantly reduced	0.00% and 0.02%	0.00%	significantly reduced	0.00%	0.00%	–	–	–	–	–	–
O=P(O)(OC[C@H](O)COP(=O)(O)OC[C@H](O)COP(=O)(O)OC[C@H](O)CO)OC[C@@H](O)COP(=O)(O)OC[C@@H](O)CO [PGP1]	–	–	–	–	–	–	significantly reduced	1.93% and 0.19% and 0.08% and 0.40%	0.65%	bacteria were still able to adhere to the tooth surface	still significant	15.16%

— US20130078194A1, “COMPOSITIONS FOR DENTAL TREATMENT COMPRISING LIPOTEICHOIC ACIDS OR PARTS THEREOF LIKE MONO- OR POLYGLYCERPHOSPHATES” (LUNAMED AG, priority 2010, published 2013)
